Converted amounts (≈) assume the structure as drawn.
What was measured:
[1] = molecular target: Prolyl endopeptidase, Prolyl Oligopeptidase (hPREP) (Homo sapiens (Human), UniProt P48147); experiment: hPrep inhibition assay; format: biochemical; conditions: hPREP 0.6 nM, Z-Gly-Pro-amino-methylcoumarin 50 μM; read-out: PREP IC50
In short: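 Recombinant human PREP at 0.6 nM final with Z-Gly-Pro-AMC substrate at 50 μM final in Tris-HCl pH 7.5, NaCl, Triton X-100, glutathione; 15 min rt preincubation then 20 min rt reaction in dark. AMC fluorescence (ex 340/em 460 nm); IC50 from one-site dose-response fit of % inhibition.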

[2] = molecular target: human Fibroblast activation protein alpha (hFAP) (Homo sapiens (Human), UniProt Q12884); experiment: hFAP inhibition assay (tight binders); format: biochemical; conditions: Ala-Pro-AMC 20 μM, n = 1 or geometric mean n = 2-6; note: hFAP 2.4 pM
Experimental: The plates were read on a PHERAstar® reader with excitation 340 nm and emission 460 nm. Data were analyzed in Genedata Screener®. IC50 values were determined by plotting % inhibition versus log compound concentration and using a one site dose response model.

[3] = Metabolic stability in human liver microsomes (HLM); conditions: for microsomal CLint: human
Experimental: Metabolic stability in HLM was measured as described in J Comput Aided Mol Des 2015, 29, 795.

[4] = molecular target: hFAP (M39-A757) (Homo sapiens (Human), UniProt Q12884); experiment: hFAP binding assay (surface plasmon resonance); conditions: SPR, 20° C.; for hFAP Binding assay k(off) / hFAP Binding assay k(on): single cycle kinetics; for Kd: n = 1 or geometric mean n = 2-4
[5] = Kinetic solubility
Experimental: Kinetic solubility was measured as described in Comput Aided Mol Des 2015, 29, 795.

[6] = Metabolic stability in rat hepatocytes (rHep); conditions: n = 1 or geometric mean of n = 2-3
[7] = HLM CLint, n = 1 or average of n = 2-3
[8] = kinetic from dmso stock, Solubility, kinetic solubility, n = 1 or average of n = 2-3

human Fibroblast activation protein alpha (hFAP), sequence (Q12884 38-760): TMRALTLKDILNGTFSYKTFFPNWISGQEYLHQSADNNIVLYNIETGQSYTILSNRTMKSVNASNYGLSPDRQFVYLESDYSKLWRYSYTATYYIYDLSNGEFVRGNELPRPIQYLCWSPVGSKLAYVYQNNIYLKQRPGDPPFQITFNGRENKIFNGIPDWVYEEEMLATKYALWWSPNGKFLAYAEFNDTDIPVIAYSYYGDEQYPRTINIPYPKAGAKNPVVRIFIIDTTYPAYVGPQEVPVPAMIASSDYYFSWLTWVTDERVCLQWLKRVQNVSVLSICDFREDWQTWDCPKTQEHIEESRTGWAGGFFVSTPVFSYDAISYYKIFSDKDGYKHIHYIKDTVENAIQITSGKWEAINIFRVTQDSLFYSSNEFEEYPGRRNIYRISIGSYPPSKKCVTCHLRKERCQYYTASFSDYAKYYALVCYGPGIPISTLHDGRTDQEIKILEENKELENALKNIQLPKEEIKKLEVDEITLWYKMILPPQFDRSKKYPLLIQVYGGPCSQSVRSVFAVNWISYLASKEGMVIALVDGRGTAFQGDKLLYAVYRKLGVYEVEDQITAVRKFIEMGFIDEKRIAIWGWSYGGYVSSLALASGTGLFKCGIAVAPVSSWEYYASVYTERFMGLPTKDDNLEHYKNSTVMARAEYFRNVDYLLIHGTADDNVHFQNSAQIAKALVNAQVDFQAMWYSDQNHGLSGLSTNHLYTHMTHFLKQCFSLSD
hFAP (M39-A757), sequence (Q12884 39-757): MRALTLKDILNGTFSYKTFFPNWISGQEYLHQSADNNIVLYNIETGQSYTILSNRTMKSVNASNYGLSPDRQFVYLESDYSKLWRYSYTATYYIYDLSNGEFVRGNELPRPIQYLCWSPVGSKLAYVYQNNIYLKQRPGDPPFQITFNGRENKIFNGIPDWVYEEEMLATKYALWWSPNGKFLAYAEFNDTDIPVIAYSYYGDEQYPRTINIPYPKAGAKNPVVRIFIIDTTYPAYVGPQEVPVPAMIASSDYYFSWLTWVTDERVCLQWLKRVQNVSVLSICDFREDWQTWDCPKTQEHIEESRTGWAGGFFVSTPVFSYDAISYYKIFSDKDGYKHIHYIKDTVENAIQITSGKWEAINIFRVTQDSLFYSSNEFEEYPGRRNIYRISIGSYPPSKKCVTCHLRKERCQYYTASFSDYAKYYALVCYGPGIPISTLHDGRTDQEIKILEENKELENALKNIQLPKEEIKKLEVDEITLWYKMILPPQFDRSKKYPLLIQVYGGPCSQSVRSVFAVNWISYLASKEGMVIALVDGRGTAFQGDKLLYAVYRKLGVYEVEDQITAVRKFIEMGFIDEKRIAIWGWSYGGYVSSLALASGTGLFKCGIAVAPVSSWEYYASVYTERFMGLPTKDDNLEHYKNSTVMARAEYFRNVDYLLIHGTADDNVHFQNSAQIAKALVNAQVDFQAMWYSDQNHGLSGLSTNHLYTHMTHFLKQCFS
Prolyl endopeptidase, Prolyl Oligopeptidase (hPREP), sequence (P48147 whole entry): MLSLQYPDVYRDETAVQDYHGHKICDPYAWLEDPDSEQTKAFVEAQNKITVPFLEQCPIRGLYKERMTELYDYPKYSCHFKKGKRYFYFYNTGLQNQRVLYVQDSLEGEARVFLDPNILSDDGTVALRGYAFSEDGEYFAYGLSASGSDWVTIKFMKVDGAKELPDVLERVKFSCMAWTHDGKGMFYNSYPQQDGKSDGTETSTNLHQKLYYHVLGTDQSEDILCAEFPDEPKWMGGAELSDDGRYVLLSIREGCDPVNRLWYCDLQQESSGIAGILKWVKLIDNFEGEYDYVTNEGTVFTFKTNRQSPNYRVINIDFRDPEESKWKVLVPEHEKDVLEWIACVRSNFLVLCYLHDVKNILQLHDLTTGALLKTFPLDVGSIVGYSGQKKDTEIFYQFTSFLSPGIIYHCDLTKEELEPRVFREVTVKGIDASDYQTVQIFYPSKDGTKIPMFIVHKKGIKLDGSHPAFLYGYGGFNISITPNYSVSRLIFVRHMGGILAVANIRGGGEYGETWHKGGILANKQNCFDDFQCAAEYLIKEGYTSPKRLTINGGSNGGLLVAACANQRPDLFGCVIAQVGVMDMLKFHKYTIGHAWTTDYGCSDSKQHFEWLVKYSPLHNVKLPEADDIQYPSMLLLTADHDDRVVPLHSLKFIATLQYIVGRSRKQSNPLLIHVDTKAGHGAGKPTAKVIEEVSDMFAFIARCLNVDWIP

Compound	IC50 [1]	IC50 [2]	microsomal CLint [3, 7]	hFAP Binding assay k(off) [4]	hFAP Binding assay k(on) [4]	Kd [4]	solubility [5, 8]	rHep CLint [6]	HLM CLint ([3]; n = 1 or average of n = 2-3)	solubility ([5]; kinetic solubility, n = 1 or average of n = 2-3)	microsomal CLint [3]	solubility ([5]; kinetic from dmso stock)
Cc1cc2nccc(C(=O)NCC(=O)N3CSC[C@H]3C#N)c2cc1N1CCOCC1 [Example 10, (R)—N-(2-(4-Cyanothiazolidin-3-yl)-2-oxoethyl)-7-methyl-6-morpholino-quinoline-4-carboxamide]	940 nM	0.054 nM	130 µL/min/mg	0.000056 s⁻¹	370000 M⁻¹ s⁻¹	0.15 nM	270 µM (≈ 115 µg/mL)	41 μL/min/1E6	–	–	–	–
Cc1cc(C(F)(F)F)nn1-c1ccc2nccc(C(=O)NCC(=O)N3CSC[C@H]3C#N)c2c1 [Example 116, (R)—N-(2-(4-Cyanothiazolidin-3-yl)-2-oxoethyl)-6-(5-methyl-3-(trifluoromethyl)-1H-pyrazol-1-yl)quinoline-4-carboxamide]	230 nM	0.16 nM	98 µL/min/mg	0.0012 s⁻¹	7900000 M⁻¹ s⁻¹	0.15 nM	490 µM (≈ 232 µg/mL)	15 μL/min/1E6	–	–	–	–
CC1(C)CN(c2ccc3nccc(C(=O)NCC(=O)N4CSC[C@H]4C#N)c3c2)C(=O)O1 [Example 13, (R)—N-(2-(4-Cyanothiazolidin-3-yl)-2-oxoethyl)-6-(5,5-dimethyl-2-oxooxazolidin-3-yl)quinoline-4-carboxamide]	380 nM	0.041 nM	12 µL/min/mg	0.000076 s⁻¹	9200000 M⁻¹ s⁻¹	0.014 nM	27 µM (≈ 11.9 µg/mL)	5.4 μL/min/1E6	–	–	–	–
N#C[C@@H]1CSCN1C(=O)CNC(=O)c1ccnc2ccc(N3CC4(CCCC4)C3)cc12 [Example 139, (R)—N-(2-(4-Cyanothiazolidin-3-yl)-2-oxoethyl)-6-(2-azaspiro[3.4]octan-2-yl)quinoline-4-carboxamide]	1000 nM	0.32 nM	–	–	–	0.015 nM	–	13 μL/min/1E6	–	–	72 µL/min/mg	50 µM (≈ 21.8 µg/mL)
CCC1(C)CN(c2ccc3nccc(C(=O)NCC(=O)N4CSC[C@H]4C#N)c3c2)C1 [Example 137, (R)—N-(2-(4-Cyanothiazolidin-3-yl)-2-oxoethyl)-6-(3-ethyl-3-methyl-azetidin-1-yl)quinoline-4-carboxamide]	340 nM	0.11 nM	70 µL/min/mg	0.000098 s⁻¹	9500000 M⁻¹ s⁻¹	0.013 nM	74 µM (≈ 31.3 µg/mL)	17 μL/min/1E6	–	–	–	–
N#C[C@@H]1CSCN1C(=O)CNC(=O)c1ccnc2cc(Cl)c(N3CCOCC3)cc12 [Example 179, (R)-7-Chloro-N-(2-(4-cyanothiazolidin-3-yl)-2-oxoethyl)-6-morpholino-quinoline-4-carboxamide]	470 nM	0.048 nM	140 µL/min/mg	0.00016 s⁻¹	3200000 M⁻¹ s⁻¹	0.052 nM	110 µM (≈ 49.1 µg/mL)	47 μL/min/1E6	–	–	–	–
N#C[C@@H]1CSCN1C(=O)CNC(=O)c1ccnc2ccc(N3CCO[C@@H](C(F)(F)F)C3)cc12 [Example 73, N-(2-((R)-4-Cyanothiazolidin-3-yl)-2-oxoethyl)-6-((R)-2-(trifluoromethyl)-morpholino)quinoline-4-carboxamide]	1800 nM	0.13 nM	32 µL/min/mg	0.00016 s⁻¹	2400000 M⁻¹ s⁻¹	0.066 nM	310 µM (≈ 149 µg/mL)	11 μL/min/1E6	–	–	–	–
N#C[C@@H]1CSCN1C(=O)CNC(=O)c1ccnc2c(Cl)cc(N3CCOCC3)cc12 [Example 180, (R)-8-Chloro-N-(2-(4-cyanothiazolidin-3-yl)-2-oxoethyl)-6-morpholino-quinoline-4-carboxamide]	590 nM	0.2 nM	110 µL/min/mg	0.00095 s⁻¹	560000 M⁻¹ s⁻¹	1.3 nM	170 µM (≈ 75.8 µg/mL)	3 μL/min/1E6	–	–	–	–
CC(C)OC1CCN(c2ccc3nccc(C(=O)NCC(=O)N4CSC[C@H]4C#N)c3c2)CC1 [Example 43, (R)—N-(2-(4-Cyanothiazolidin-3-yl)-2-oxoethyl)-6-(4-isopropoxypiperidin-1-yl)quinoline-4-carboxamide]	1000 nM	0.045 nM	36 µL/min/mg	0.000019 s⁻¹	3200000 M⁻¹ s⁻¹	0.0061 nM	52 µM (≈ 24.3 µg/mL)	9.1 μL/min/1E6	–	–	–	–
N#C[C@@H]1CSCN1C(=O)CNC(=O)c1ccnc2ccc(N3CCC[C@H]3C3CC3)cc12 (single isomer, unassigned) [Example 200, N-(2-((R)-4-Cyanothiazolidin-3-yl)-2-oxoethyl)-6-((R*)-2-cyclopropyl-pyrrolidin-1-yl)quinoline-4-carboxamide]	130 nM	0.24 nM	> 300 µL/min/mg	0.00023 s⁻¹	2500000 M⁻¹ s⁻¹	0.09 nM	81 µM (≈ 35.3 µg/mL)	>300 μL/min/1E6	–	–	–	–
CC1(C)CN(c2ccc3nccc(C(=O)NCC(=O)N4CSC[C@H]4C#N)c3c2)CCC1(F)F [Example 38, (R)—N-(2-(4-Cyanothiazolidin-3-yl)-2-oxoethyl)-6-(4,4-difluoro-3,3-dimethylpiperidin-1-yl)quinoline-4-carboxamide]	480 nM	0.1 nM	> 300 µL/min/mg	0.000078 s⁻¹	520000 M⁻¹ s⁻¹	0.11 nM	33 µM (≈ 15.6 µg/mL)	>300 μL/min/1E6	–	–	–	–

Continued by falling IC50 [1], values first:

IC50 [1]	IC50 [2]	microsomal CLint [3, 7]	hFAP Binding assay k(off) [4]	hFAP Binding assay k(on) [4]	Kd [4]	solubility [5, 8]	rHep CLint [6]	HLM CLint ([3]; n = 1 or average of n = 2-3)	solubility ([5]; kinetic solubility, n = 1 or average of n = 2-3)	Compound	microsomal CLint [3]	solubility ([5]; kinetic from dmso stock)
720 nM	0.087 nM	–	0.00011 s⁻¹	4000000 M⁻¹ s⁻¹	0.032 nM	–	35 μL/min/1E6	260 µL/min/mg	800 µM (≈ 384 µg/mL)	N#C[C@@H]1CSCN1C(=O)CNC(=O)c1ccnc2ccc(N3CCOC[C@@H]3C(F)(F)F)cc12 (single isomer, unassigned) [Example 85, N-(2-((R)-4-Cyanothiazolidin-3-yl)-2-oxoethyl)-6-((R*)-3-(trifluoromethyl)-morpholino)quinoline-4-carboxamide]	–	–
360 nM	0.1 nM	41 µL/min/mg	–	–	0.17 nM	20 µM (≈ 9.21 µg/mL)	21 μL/min/1E6	–	–	N#C[C@@H]1CSCN1C(=O)CNC(=O)c1ccnc2ccc(-n3ccc(C(F)(F)F)n3)cc12 [Example 118, (R)—N-(2-(4-Cyanothiazolidin-3-yl)-2-oxoethyl)-6-(3-(trifluoromethyl)-1H-pyrazol-1-yl)quinoline-4-carboxamide]	–	–
310 nM	0.22 nM	140 µL/min/mg	0.000066 s⁻¹	1200000 M⁻¹ s⁻¹	0.056 nM	100 µM	120 μL/min/1E6	–	–	N#C[C@@H]1CSCN1C(=O)CNC(=O)c1ccnc2ccc(N3C[C@@H]4CCC[C@@H]43)cc12 (mixture of isomers) [Example 156, 6-((1RS,5RS)-6-Azabicyclo[3.2.0]heptan-6-yl)-N-(2-((R)-4-cyanothiazolidin-3-yl)-2-oxoethyl)quinoline-4-carboxamide]	–	–
230 nM	0.072 nM	170 µL/min/mg	–	–	0.062 nM	4.5 µM (≈ 2.01 µg/mL)	36 μL/min/1E6	–	–	N#C[C@@H]1CSCN1C(=O)CNC(=O)c1ccnc2ccc(-n3ncc4c3CCCC4)cc12 [Example 114, (R)—N-(2-(4-Cyanothiazolidin-3-yl)-2-oxoethyl)-6-(4,5,6,7-tetrahydro-1H-indazol-1-yl)quinoline-4-carboxamide]	–	–
76 nM	0.16 nM	68 µL/min/mg	0.00031 s⁻¹	610000 M⁻¹ s⁻¹	0.39 nM	1 µM (≈ 0.477 µg/mL)	27 μL/min/1E6	–	–	N#C[C@@H]1CSCN1C(=O)CNC(=O)c1ccnc2ccc(-n3ccc4c(F)cc(F)cc43)cc12 [Example 119, (R)—N-(2-(4-Cyanothiazolidin-3-yl)-2-oxoethyl)-6-(4,6-difluoro-1H-indol-1-yl)quinoline-4-carboxamide]	–	–
25 nM	0.15 nM	100 µL/min/mg	–	–	0.13 nM	0.92 µM (≈ 0.423 µg/mL)	27 μL/min/1E6	–	–	N#C[C@@H]1CSCN1C(=O)CNC(=O)c1ccnc2ccc(-n3ccc4cc(F)ccc43)cc12 [Example 120, (R)—N-(2-(4-Cyanothiazolidin-3-yl)-2-oxoethyl)-6-(5-fluoro-1H-indol-1-yl)quinoline-4-carboxamide]	–	–

Source: patent publication US20230312550A1, “N-(2-(4-CYANOTHIAZOLIDIN-3-YL)-2-OXOETHYL)-QUINOLINE-4-CARBOXAMIDES” (AstraZeneca AB, priority 2020, published 2023)
